Source: patent US9216220B2, “Compositions and methods for thermo-sensitive nanoparticles and magnetic nanoparticles” (BOARD OF REGENTS, THE UNIVERSITY OF TEXAS SYSTEM, priority 2008, dated 2015)

System: Prostate cancer cells (i.e., JHU31)
Test: Cancer cell viability, MTS assay, DOX-loaded nanoparticles
Assay type: cell-based
Conditions: 37° C., 24 hours; nanoparticles 500 μg/ml
Method: In order to investigate the pharmacological activity of the in vitro released DOX from the functionalized copolymer magnetic nanoparticles, cancer cell viability was conducted using MTS assays (Promega) according to the manufacturer's instruction. Prostate cancer cells (i.e., JHU31) were cultured to confluence, harvested by trypsinization, and dispersed in RPMI supplemented with 10% serum and 1% penicillin-streptomycin. Cells were seeded at a density of approximately 10,000 cells/well in 24-well plates for 24 hours at 37° C., and then were then incubated with nanoparticles, DOX-loaded nanoparticles, and free DOX. The concentration of functionalized copolymer magnetic nanoparticles and DOX-loaded functionalized copolymer magnetic nanoparticles was 500 μg/ml. This nanoparticle concentration was selected according to drug release results from the nanoparticles indicated above and the optimal inhibition dose of DOX on prostate cancer cell growth studies. The prostate cancer cells were incubated with each group at 37° C., 41° C., and temperature cycles between 37° C. and 41° C. (one hour at each temperature for one cycle) for 24 hours.

## COc1cccc2c1C(=O)c1c(O)c3c(c(O)c1C2=O)C[C@@](O)(C(=O)CO)C[C@@H]3O[C@H]1C[C@H](N)[C@H](O)[C@H](C)O1 [DOX, doxorubicin]
  cell viability in comparison to the control: 20%
